Experimental data from ChEMBL document CHEMBL1201862, “PubChem BioAssay data set” (2004).
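In this assay, cells in 96-well plates receive the compound at five concentrations for 48 hours. Endpoints are linearly interpolated between the surrounding concentrations. Here, GI50 denotes the concentration required for 50% inhibition of growth.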 Activity calls are given as the source filed them. Rule as the data show it: active = GI50 up to about 1.1 µM and inactive = higher.

What was measured:
Assay in all cases: NCI-60 cell line screen, 48 h
[1] = tested on: RPMI-8226
[2] = tested on: HT-29
[3] = tested on: SNB-75
[4] = tested on: MDA-N
[5] = tested on: NCI-H23
[6] = tested on: OVCAR-3
[7] = tested on: SF-295
[8] = tested on: SK-MEL-2
[9] = tested on: EKVX
[10] = tested on: T47D
[11] = tested on: HCC 2998
[12] = tested on: SR
[13] = tested on: A498
[14] = tested on: NCI-H226
[15] = tested on: OVCAR-8
[16] = tested on: CCRF-CEM
[17] = tested on: HCT-116
[18] = tested on: Hs-578T
[19] = tested on: A549
[20] = tested on: M14

Compound	GI50 [1]	GI50 [2]	GI50 [3]	GI50 [4]	GI50 [5]	GI50 [6]	GI50 [7]	GI50 [8]	GI50 [9]	GI50 [10]	GI50 [11]	GI50 [12]	GI50 [13]	GI50 [14]	GI50 [15]	GI50 [16]	GI50 [17]	GI50 [18]	GI50 [19]	GI50 [20]
COc1cc(S(=O)(=O)Nc2ccc(-c3csc(N4C(=O)C(Cl)C4c4ccccc4O)n3)cc2)ccc1Cl (stereo not given)	23.2 µM (inactive)	36.8 µM (inactive)	62.7 µM (inactive)	27.5 µM (inactive)	23.6 µM (inactive)	> 100 µM (inactive)	> 100 µM (inactive)	37.8 µM (inactive)	15.4 µM (inactive)	13.1 µM (inactive)	15.1 µM (inactive)	4.82 µM (inactive)	0.454 µM (active)	37.8 µM (inactive)	53.6 µM (inactive)	2.73 µM (inactive)	30.3 µM (inactive)	0.748 µM (active)	> 100 µM (inactive)	50.9 µM (inactive)
O=C1C(Br)=C(Br)C(=O)c2ccc(=O)ccc21	20 µM (inactive)	30.8 µM (inactive)	57.9 µM (inactive)	22.6 µM (inactive)	21.2 µM (inactive)	20.8 µM (inactive)	33.2 µM (inactive)	48.9 µM (inactive)	36.6 µM (inactive)	24.4 µM (inactive)	> 85.1 µM (inactive)	26.1 µM (inactive)	> 100 µM (inactive)	> 53 µM (inactive)	22.3 µM (inactive)	2.88 µM (inactive)	20 µM (inactive)	26.4 µM (inactive)	70.6 µM (inactive)	17.9 µM (inactive)
CCOP(=O)(OCC)/C(C#N)=C\c1cccc2ccccc12	23 µM (inactive)	> 66.1 µM (inactive)	22.4 µM (inactive)	40.6 µM (inactive)	78.3 µM (inactive)	> 55.7 µM (inactive)	60.1 µM (inactive)	> 62.1 µM (inactive)	31.9 µM (inactive)	26.8 µM (inactive)	> 58.5 µM (inactive)	31.8 µM (inactive)	44.5 µM (inactive)	32.4 µM (inactive)	> 45.7 µM (inactive)	30.1 µM (inactive)	46 µM (inactive)	20.2 µM (inactive)	> 100 µM (inactive)	80 µM (inactive)
OC(c1ccc2c(c1)OCO2)c1ccc2c(c1)OCO2	> 100 µM (inactive)	> 100 µM (inactive)	80.4 µM (inactive)	> 100 µM (inactive)	> 100 µM (inactive)	> 100 µM (inactive)	> 100 µM (inactive)	> 100 µM (inactive)	> 100 µM (inactive)	> 100 µM (inactive)	> 100 µM (inactive)	> 100 µM (inactive)	54 µM (inactive)	> 100 µM (inactive)	> 100 µM (inactive)	> 100 µM (inactive)	> 100 µM (inactive)	> 100 µM (inactive)	> 100 µM (inactive)	> 100 µM (inactive)
Nc1nc(SCc2ccccc2[N+](=O)[O-])c2[nH]cnc2n1	> 47.2 µM (inactive)	32.8 µM (inactive)	> 42.5 µM (inactive)	27.9 µM (inactive)	> 58.1 µM (inactive)	> 70.8 µM (inactive)	> 67.6 µM (inactive)	26.7 µM (inactive)	> 53.5 µM (inactive)	23.3 µM (inactive)	> 41.5 µM (inactive)	> 51.6 µM (inactive)	18.6 µM (inactive)	> 50.9 µM (inactive)	> 52.8 µM (inactive)	> 44.8 µM (inactive)	> 60.1 µM (inactive)	1.93 µM (inactive)	> 76.6 µM (inactive)	> 53.3 µM (inactive)
CCOC(=O)CC[C@H](NC(=O)[C@H](N)Cc1ccc(N(CCCl)CCCl)cc1)C(=O)OCC	19.6 µM (inactive)	36.1 µM (inactive)	12 µM (inactive)	23.2 µM (inactive)	3.08 µM (inactive)	8.28 µM (inactive)	29.2 µM (inactive)	29.4 µM (inactive)	> 42.6 µM (inactive)	8.07 µM (inactive)	18.3 µM (inactive)	1.91 µM (inactive)	> 100 µM (inactive)	> 34.7 µM (inactive)	10.6 µM (inactive)	1.14 µM (inactive)	22.2 µM (inactive)	22.3 µM (inactive)	35.4 µM (inactive)	8.65 µM (inactive)
Oc1c2ccccc2c2c3c(cccc13)N=N2 [SP-600125]	18.8 µM (inactive)	25.9 µM (inactive)	16.9 µM (inactive)	15 µM (inactive)	23.8 µM (inactive)	15.3 µM (inactive)	22.5 µM (inactive)	29 µM (inactive)	20 µM (inactive)	> 100 µM (inactive)	9.62 µM (inactive)	13.1 µM (inactive)	7.03 µM (inactive)	22.9 µM (inactive)	22 µM (inactive)	16.1 µM (inactive)	44.6 µM (inactive)	55.1 µM (inactive)	14.9 µM (inactive)	> 100 µM (inactive)
